# Assay results published in US6344484B1, “Tyrosine alkoxyguanidines as integrin inhibitors” (3-Dimensional Pharmaceuticals, Inc., priority 1999, dated 2002).
# Where a name gives a salt, the structure may show the parent alone. Read-outs that look alike come from different tables or passages of the source.
# Tests used:
# human αvβ3 = molecular target: T1, human αvβ3 (Homo sapiens, UniProt P05106+P06756); assay: αvβ3-vitronectin assay (ELISA, inhibition of αvβ3-vitronectin interaction); type: binding
# T1 construct: purchased Chemicon CC10118
# T1 sequence (P06756 31-889 limits assumed): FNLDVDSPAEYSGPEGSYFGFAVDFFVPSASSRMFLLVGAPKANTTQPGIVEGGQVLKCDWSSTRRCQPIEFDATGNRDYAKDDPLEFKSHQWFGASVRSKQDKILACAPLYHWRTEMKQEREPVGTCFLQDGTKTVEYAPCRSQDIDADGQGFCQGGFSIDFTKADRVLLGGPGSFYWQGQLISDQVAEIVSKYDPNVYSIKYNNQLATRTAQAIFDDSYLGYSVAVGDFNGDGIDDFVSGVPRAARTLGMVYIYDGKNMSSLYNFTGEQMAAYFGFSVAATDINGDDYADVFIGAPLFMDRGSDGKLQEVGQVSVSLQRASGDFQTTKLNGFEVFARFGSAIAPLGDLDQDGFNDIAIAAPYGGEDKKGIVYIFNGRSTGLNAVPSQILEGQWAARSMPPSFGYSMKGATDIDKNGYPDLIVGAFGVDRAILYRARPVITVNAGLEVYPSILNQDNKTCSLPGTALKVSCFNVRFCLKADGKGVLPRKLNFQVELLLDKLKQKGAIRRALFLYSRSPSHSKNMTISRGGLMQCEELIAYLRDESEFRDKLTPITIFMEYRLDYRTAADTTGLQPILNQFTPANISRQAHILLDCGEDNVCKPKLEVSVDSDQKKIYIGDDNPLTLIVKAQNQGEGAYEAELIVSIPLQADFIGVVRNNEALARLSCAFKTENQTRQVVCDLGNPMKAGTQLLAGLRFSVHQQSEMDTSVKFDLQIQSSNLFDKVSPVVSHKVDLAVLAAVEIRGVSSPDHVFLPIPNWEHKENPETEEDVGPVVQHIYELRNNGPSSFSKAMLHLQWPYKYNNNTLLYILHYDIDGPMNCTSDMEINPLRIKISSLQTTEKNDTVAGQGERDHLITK
# T1 sequence (P06756 891-1048 partner limits assumed): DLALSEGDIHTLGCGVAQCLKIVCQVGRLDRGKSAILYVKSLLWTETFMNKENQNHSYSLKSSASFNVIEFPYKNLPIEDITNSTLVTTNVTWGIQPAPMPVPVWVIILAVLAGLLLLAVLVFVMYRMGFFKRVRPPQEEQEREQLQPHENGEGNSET
# T1 sequence (P05106 27-788): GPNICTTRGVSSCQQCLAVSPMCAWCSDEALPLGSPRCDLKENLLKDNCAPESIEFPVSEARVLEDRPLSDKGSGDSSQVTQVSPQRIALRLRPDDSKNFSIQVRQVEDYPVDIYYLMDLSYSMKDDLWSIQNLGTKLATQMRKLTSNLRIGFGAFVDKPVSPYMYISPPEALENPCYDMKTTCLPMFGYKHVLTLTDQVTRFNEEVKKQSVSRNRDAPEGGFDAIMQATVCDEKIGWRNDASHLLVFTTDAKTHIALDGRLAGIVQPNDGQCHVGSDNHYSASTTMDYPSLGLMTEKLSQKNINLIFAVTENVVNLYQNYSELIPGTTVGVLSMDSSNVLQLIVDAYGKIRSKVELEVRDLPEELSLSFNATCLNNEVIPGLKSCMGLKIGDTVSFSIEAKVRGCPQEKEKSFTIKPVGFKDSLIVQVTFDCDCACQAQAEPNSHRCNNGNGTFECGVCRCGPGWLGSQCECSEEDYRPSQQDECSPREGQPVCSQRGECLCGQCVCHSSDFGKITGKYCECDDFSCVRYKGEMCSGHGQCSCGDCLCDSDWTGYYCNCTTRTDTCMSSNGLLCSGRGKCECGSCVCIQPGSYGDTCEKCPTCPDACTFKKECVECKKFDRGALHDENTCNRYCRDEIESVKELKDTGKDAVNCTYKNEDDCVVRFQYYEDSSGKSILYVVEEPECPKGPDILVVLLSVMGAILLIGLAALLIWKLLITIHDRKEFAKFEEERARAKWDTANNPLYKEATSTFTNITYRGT
# Experimental: The assay was based on the method of Niiya (Niiya, K., et al., Blood 70:475-483 (1987)). Costar 9018 flat-bottom 96-well ELISA plates were coated overnight at 4° C. with 100 μL/well of 0.4 μg/mL human αvβ3 (Chemicon CC10118) in TS buffer (20 mM Tris-HCl pH 7.5, 150 mM NaCl, 1 mM CaCl2, 1 mM MgCl2, 1 mM MnCl2). All subsequent steps were performed at room temperature. Plates were blocked for 2 hr with 200 μL/well of TS buffer containing 1% BSA (TSB buffer), and washed 5 times with 200 μL/well of TS buffer. Controls or test compound (0.44-455 nM) were mixed with 1 μg/mL of human vitronectin (Chemicon CC1019) that had been biotinylated in-house with sulfo-NHS-LC-LC-biotin (Pierce 21338, 20:1 molar ratio), and 100 μL/well of these solutions (in TSB buffer) were incubated for 2 hr. The plate was then washed 5 times with TS buffer, and 100 μL/well of 1 μ/mL NeutrAvidin-horseradish peroxidase conjugate (Pierce 31001) in TSB buffer was incubated for 1 hr. Following a 5-fold TS buffer wash, the plate was developed and results were calculated as described for the fibrinogen-IIbIIIa assay.
# human GPIIbIIIa = molecular target: T2, human GPIIbIIIa (Homo sapiens, UniProt P05106+P08514); assay: Fibrinogen-IIb-IIIa assay (ELISA, inhibition of fibrinogen-GPIIbIIIa interaction); type: binding; details: mean of three replicate determinations; FIG. 1
# T2 construct: purchased Enzyme Research Laboratories
# T2 sequence (P08514 32-887 limits assumed): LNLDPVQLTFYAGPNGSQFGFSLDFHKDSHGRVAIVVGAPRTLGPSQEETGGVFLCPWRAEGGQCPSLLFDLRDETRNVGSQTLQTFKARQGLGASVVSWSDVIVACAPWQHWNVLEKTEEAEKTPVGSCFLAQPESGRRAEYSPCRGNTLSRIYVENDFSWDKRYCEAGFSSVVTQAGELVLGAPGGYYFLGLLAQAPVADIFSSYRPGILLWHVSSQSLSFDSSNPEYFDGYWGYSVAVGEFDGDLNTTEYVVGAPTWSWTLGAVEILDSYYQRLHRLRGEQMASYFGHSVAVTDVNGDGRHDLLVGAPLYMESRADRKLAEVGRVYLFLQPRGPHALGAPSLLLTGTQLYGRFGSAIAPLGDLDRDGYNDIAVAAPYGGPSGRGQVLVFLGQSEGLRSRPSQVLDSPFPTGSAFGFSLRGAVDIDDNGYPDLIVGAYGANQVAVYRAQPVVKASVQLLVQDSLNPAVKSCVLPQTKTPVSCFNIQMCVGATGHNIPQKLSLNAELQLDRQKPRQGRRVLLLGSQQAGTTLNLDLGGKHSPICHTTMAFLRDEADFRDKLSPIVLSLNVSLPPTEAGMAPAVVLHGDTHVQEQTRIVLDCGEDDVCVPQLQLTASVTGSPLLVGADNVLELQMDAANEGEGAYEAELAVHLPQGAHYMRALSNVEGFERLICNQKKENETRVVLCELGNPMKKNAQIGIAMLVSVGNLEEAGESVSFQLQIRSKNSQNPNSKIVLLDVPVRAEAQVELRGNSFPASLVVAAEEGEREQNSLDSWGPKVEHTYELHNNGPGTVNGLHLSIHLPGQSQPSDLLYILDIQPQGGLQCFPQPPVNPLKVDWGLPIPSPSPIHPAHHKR
# T2 sequence (P08514 891-1039 partner limits assumed): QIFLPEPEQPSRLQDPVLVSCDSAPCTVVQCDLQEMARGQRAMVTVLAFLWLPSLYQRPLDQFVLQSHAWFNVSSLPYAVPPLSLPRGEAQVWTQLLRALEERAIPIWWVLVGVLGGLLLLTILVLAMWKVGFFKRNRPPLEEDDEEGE
# T2 sequence (P05106 27-788): as the sequence (P05106 27-788) above
# Experimental: Fibrinogen-IIb-IIIa assay
# The assay is based on the method of Dennis (Dennis, M. S., et al, Proteins 15: 312-321 (1993)). Costar 9018 flat-bottom 96-well ELISA plates were coated overnight at 4° C. with 100 μL/well of 10 μg/mL human fibrinogen (Calbiochem 341578) in 20 mM Tris-HCl pH 7.5, 150 mM NaCl, 2 mM CaCl2, 0.02% NaN3 (TAC buffer), and blocked for 1 hr at 37° C. with 150 μL/well of TAC buffer containing 0.05% Tween 20 and 1% bovine serum albumin (TACTB buffer). After washing 3 times with 200 μL/well of 10 mM Na2HPO4 pH 7.5, 150 mM NaCl, 0.01% Tween 20 (PBST buffer), controls or test compound (0.036-18.2 μM) were mixed with 40 μg/mL human GPIIbIIIa (Enzyme Research Laboratories) in TACTB buffer, and 100 μL/well of these solutions were incubated for 2 hr at 37° C. The plate was then washed 3 times with PBST buffer, and 100 μL/well of a monoclonal anti-GPIIbIIIa antibody in TACTB buffer (1 μg/mL, Enzyme Research Laboratories MabGP2b3a) was incubated at 37° C. for 1 hr. […] The reaction was stopped with 50 μL/well of 2M H2SO4, and the absorbence at 492 nm was recorded. Percent (%) inhibition was calculated from the average of three separate determinations relative to buffer controls (no test compound added), and a four parameter fit (Marquardt, D. W., J. Soc. Indust. Appl. Math. 11:431-441 (1963)) was used to estimate the half maximal inhibition concentration (IC50).
# [1] = Table I, read-out: αvβ3 IC50 (nM), inhibition of the αvβ3-vitronectin interaction
SMILES,IC50 (human αvβ3; [1]) [nM],"IC50 (human αvβ3; mean of three replicate determinations, FIG. 2, read-out: IC50, inhibition of the αvβ3-vitronectin interaction) [nM]",IC50 (human GPIIbIIIa) [nM]
"CCCCS(=O)(=O)N[C@@H](Cc1ccc(OCCCONC(=N)N)cc1)C(=O)O [Example 1, (2S)-3-{4-[3-(amidinoaminooxy)propoxy]phenyl}-2-[(butylsulfonyl)amino]propanoic acid trifluoroacetic acid]",,28,780
"Cc1nn(C)c(Cl)c1S(=O)(=O)N[C@@H](Cc1ccc(OCCCONC(=N)N)cc1)C(=O)O [Example 77, (2S)-3-{4-[3-(Amidinoaminooxy)propoxy]phenyl}-2-{[(5-chloro-1,3-dimethylpyrazol-4-yl)sulfonyl]amino}propanoic acid trifluoroacetic acid salt]",6,,
"N=C(N)NOCCCOc1ccc(C[C@H](NS(=O)(=O)c2c(Cl)cccc2Cl)C(=O)O)cc1 [Example 46, (2S)-3-{4-[3-(Amidinoaminooxy)propoxy]phenyl}-2-{[(2,6-dichlorophenyl)sulfonyl]amino}propanoic acid trifluoroacetic acid salt]",2,,

# Continued by falling IC50 (human αvβ3; [1]), values first:
IC50 (human αvβ3; [1]) [nM],"IC50 (human αvβ3; mean of three replicate determinations, FIG. 2, read-out: IC50, inhibition of the αvβ3-vitronectin interaction) [nM]",IC50 (human GPIIbIIIa) [nM],SMILES
2,,,"Cc1ccc([N+](=O)[O-])cc1S(=O)(=O)N[C@@H](Cc1ccc(OCCCONC(=N)N)cc1)C(=O)O [Example 11, (2S)-3-{4-[3-(Amidinoaminooxy)propoxy]phenyl)}-2-{[(2-methyl-5-nitrophenyl)sulfonyl]amino}propanoic acid trifluoroacetic acid salt]"
1,,,"CC1(C)C2CCC1(CS(=O)(=O)N[C@@H](Cc1ccc(OCCCONC(=N)N)cc1)C(=O)O)C(=O)C2 (stereo partly drawn) [Example 86, (2S)-2-{[(1S)-10-Camphorsulfonyl]amino}-3-{4-[3-(amidinoaminooxy)propoxy]phenyl}propanoic acid trifluoroacetic acid salt]"
